Reference: US5223526A, “Pyrazole carboxanilide fungicides and use” (Monsanto Company, priority 1992, dated 1993)

Key:
Botrytis cinerea [1] = assay: Eggplant grey mold; format: in vivo; parameters: scale not given here; conditions: inoculated 24 h later, rated after 3-4 days; for Disease Control Rating at 20 ppm: eggplant sprayed with 20 ppm; for Disease Control Rating at 100 ppm: eggplant sprayed with 100 ppm; for Disease Control Rating at 500 ppm: eggplant sprayed with 500 ppm
Method: Eggplant seed are planted in 2.25" square pots, six per pot, and maintained in growth chambers set at 23° C., 80% humidity, and 12 h photoperiod. When the plants are at the cotyledon stage (14-18 days afterplanting), the plants are sprayed with 1.5 mL/pot of 500, 100 or 20 ppm 2:3 acetone:water (with 0.5% Tween® 20) formulations of the test compounds.
Twenty-four hours later the plants are inoculated with Botrytis cinerea, approximately 0.5 mL/pot of a 4×10^6 spore/mL suspension. The plantes are incubated at 23° C. and 100% humidity for 3-4 days, at which time disease control ratings are made based on presence and severity of Botrytis lesions.

Botrytis cinerea [2] = assay: Vine grey mold (grape berries); format: in vivo; conditions: average of six berries, 7-10 days; for pest or weed control at 50 ppm: grape berries treated with 50 ppm, read-out: % DISEASE CONTROL 50 ppm; for pest or weed control at 200 ppm: grape berries treated with 200 ppm, read-out: % DISEASE CONTROL 200 ppm
Method: Grape berries, which have been washed and surfaced sterilized in 70% ethanol for one minute, are, except for the negative controls, treated with 0.2 mL of a 2:3 acetone/water formulation (containing 0.05% Tween® 20) of 200 or 50 ppm of the test compounds and placed one per well in 12-well plates. Six berries per treatment level are used. Twenty-four hours later each berry is inoculated with Botrytis cinerea conidia, 0.2 mL of 10^6 spores/mL suspension. The plates are incubated at 20° C. with a 12 hours photoperiod for 7-10 days and the percent surface area infected with the disease is determined for each replicate using the values of 0, 1, 2, 5, 7, 10, 15, 20, 25, 30, 35, 40, 45, 50, 55, 60, 65, 70, 75, 80, 85, 90, 95, and 100%. Treatment means are calculated and percent disease control is determined by the formula [(control mean - treatment mean)/control means]×100.
Some of the compounds have been tested more than once and the results shown are the average of the number of tests reported.

Rhizoctonia solani = assay: Rice sheath blight; format: in vivo; parameters: scale not given here; conditions: inoculated two days later, rated after 7 days, average of five plants; for Disease Control Rating at 0.02 mg/mL: foliage and soil sprayed with 0.02 mg/mL; for Disease Control Rating at 0.1 mg/mL: foliage and soil sprayed with 0.1 mg/mL; for Disease Control Rating at 0.5 mg/mL: foliage and soil sprayed with 0.5 mg/mL
Method: Rice plants, 11 to 15 days old, are grown in 7.65 cm^2 pots. Each plant in the treatment groups is treated by spraying both the foliage and the soil surface, each with 2 mL of a water/acetone/Tween®20 formulation containing 0.5, 0.1, or 0.02 mg/mL of Compound A. The pots are placed in flood trays which are filled with water to just below the soil line. Two days later, approximately two grams of Rhizoctonia solani inoculum, cultured on rice grain for four to eight weeks, is applied to the base of the rice plants in each pot. After 7 days in a 25° C. high humidity growth chamber, each plant is evaluated for the level of disease contro as compared to untreated controls by the following scale and the average of five plants per treatment level is calculated.

succinate dehydrogenase = target: T1, succinate dehydrogenase (Botrytis cinerea, UniProt A0A384J5E4+A0A384J8V8+A0A384JHJ5); assay: Enzyme inhibition: succinate dehydrogenase activity in Botrytis cinerea mitochondria (DCPIP reduction); format: biochemical; conditions: concentration required to inhibit the rate of DCPIP reduction by 50%; Botrytis cinerea isolate Nick mitochondria; read-out: I50 (μM conc.)
T1 construct: succinate-DCPIP reductase assay with KCN
T1 sequence (A0A384J5E4 1-300): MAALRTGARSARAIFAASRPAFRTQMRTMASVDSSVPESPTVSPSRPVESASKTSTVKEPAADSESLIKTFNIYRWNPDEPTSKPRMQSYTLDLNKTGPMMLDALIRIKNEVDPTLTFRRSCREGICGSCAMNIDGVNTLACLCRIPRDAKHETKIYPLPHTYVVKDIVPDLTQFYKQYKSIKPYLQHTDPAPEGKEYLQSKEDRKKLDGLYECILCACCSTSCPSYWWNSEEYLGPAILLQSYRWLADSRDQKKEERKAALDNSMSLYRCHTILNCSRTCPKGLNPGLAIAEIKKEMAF
T1 sequence (A0A384J8V8 1-189): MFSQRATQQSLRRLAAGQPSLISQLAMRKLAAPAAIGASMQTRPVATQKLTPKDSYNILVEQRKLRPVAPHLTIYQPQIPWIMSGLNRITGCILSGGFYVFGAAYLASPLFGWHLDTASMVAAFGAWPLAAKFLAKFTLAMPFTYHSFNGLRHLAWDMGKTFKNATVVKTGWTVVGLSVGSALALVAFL
T1 sequence (A0A384JHJ5 1-192): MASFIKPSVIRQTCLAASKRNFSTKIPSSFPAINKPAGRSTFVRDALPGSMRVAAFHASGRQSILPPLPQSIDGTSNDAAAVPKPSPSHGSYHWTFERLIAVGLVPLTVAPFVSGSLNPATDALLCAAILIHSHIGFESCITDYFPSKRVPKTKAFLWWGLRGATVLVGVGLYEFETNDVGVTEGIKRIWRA
T1 sequence (A0A384K456 1-647 partner): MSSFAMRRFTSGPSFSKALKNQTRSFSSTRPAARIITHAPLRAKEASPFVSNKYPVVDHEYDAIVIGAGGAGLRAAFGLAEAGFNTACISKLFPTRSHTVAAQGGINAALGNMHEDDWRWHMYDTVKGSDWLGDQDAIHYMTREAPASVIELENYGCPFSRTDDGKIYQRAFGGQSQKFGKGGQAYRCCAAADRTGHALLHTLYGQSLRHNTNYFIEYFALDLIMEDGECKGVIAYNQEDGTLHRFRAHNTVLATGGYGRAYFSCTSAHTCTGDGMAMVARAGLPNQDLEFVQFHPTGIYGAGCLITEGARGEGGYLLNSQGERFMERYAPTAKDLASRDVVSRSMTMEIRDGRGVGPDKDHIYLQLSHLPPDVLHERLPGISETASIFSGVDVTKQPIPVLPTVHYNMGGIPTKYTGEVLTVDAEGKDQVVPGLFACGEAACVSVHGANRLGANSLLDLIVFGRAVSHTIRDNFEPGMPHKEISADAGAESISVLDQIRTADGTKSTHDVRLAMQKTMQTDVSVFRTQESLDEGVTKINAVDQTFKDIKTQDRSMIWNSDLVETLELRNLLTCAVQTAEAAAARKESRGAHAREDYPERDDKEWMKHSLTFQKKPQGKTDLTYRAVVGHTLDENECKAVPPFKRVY
Method: Mitochondria were isolated by a method adapted from G.A. White [Biochem. Biophys. Res. Commun. 44: 1212, 1971]. Twenty to thirty grams of Botrytis cinerea isolate Nick were resuspended in 250 mL 0.25M sucrose, 5mM Na4 EDTA, pH 7.0 (+) 0.15% (w/v) bovine serum albumin (BSA) and placed in a Bead Beater chamber (Biospec Products, Bartlesville, Ok.). Zirconium oxide beads (0.5mm) were added to finish filling the chamber. Four 30 second beats separated by 2 minute temperature equilibration periods in the cold were used to break the mycelia. A crude mitochondrial preparation was harvested from the homogenate by differential centrifugation at 4° C. and resuspended in BSA-free sucrose/EDTA media and used for SDH assays.
The succinate dehydrogenase activity was measured at 600 nm in 50 mM potassium phosphate, pH 7.2, 1 mM KCN, 45 μM 2,6-dichlorophenolindophenol (DCPIP) and 17 mM disodium succinate (final volume, 1 mL) with a Perkin-Elmer Lambda 7 ultraviolet-visible spectrophotometer. The test compounds were added as acetone solutions (final concentration of acetone, 1% (v/v)). The mitochondrial preparatons were used to initiate the reaction. All rates were corrected for endogenous activities minus succinate. Semilog plots of percentage inhibition versus test compound concentration were used to determine inhibition expressed as I50 (μM) which is the concentration required to inhibit the rate of DCPIP reduction by 50%. The commercial fungicide carboxin was used as standard throughout.

| Structure (SMILES) | Disease Control Rating at 20 ppm (Botrytis cinerea [1]) | Disease Control Rating at 100 ppm (Botrytis cinerea [1]) | Disease Control Rating at 500 ppm (Botrytis cinerea [1]) | pest or weed control at 50 ppm (Botrytis cinerea [2]) | pest or weed control at 200 ppm (Botrytis cinerea [2]) | Disease Control Rating at 0.02 mg/mL (Rhizoctonia solani) | Disease Control Rating at 0.1 mg/mL (Rhizoctonia solani) | Disease Control Rating at 0.5 mg/mL (Rhizoctonia solani) | IC50 (succinate dehydrogenase) |
| --- | --- | --- | --- | --- | --- | --- | --- | --- | --- |
| Cn1nc(C(F)(F)F)c(C(=O)Nc2ccccc2[C@@H]2C[C@H]3CC[C@@H]2C3)c1F (relative stereo) [Example 85, 1H-pyrazole-4-Carboxamide, N-(2-bicyclo[2.2.1]hept-2-ylphenyl)-5-fluoro-1-methyl-3-(trifluoromethyl)-, exo-] | 0 | 1 | 2 | 28% | 99% | 1 | 3 | 3 | 0.01 µM |
| Cn1nc(C(F)(F)F)c(C(=O)Nc2ccccc2[C@@H]2C[C@H]3CC[C@@H]2C3)c1Cl (relative stereo) [Example 88, 1H-pyrazole-4-carboxamide, N-(2-bicyclo[2.2.1]hept-2-ylphenyl)-5-chloro-1-methyl-3-(trifluoromethyl)-, exo-] |  |  | 0 | 0% | 0% |  |  | 0 | 0.035 µM |
| Cn1cc(C(=O)Nc2ccccc2[C@@H]2C[C@H]3CC[C@@H]2C3)c(C(F)(F)Cl)n1 (relative stereo) [Example 91, 1H-pyrazole-4-carboxamide, N-[2-bicyclo[2.2.1]hept-2-ylphenyl]-3-(chlorodifluoromethyl)-1-methyl-, exo-] |  |  | 0 | 0% | 14% |  |  | 0 | 0.078 µM |
| Cc1c(C(=O)Nc2ccccc2[C@@H]2C[C@H]3CC[C@@H]2C3)c(C(F)(F)F)nn1C (relative stereo) [Example 100, 1H-pyrazole-4-carboxamide, N-(2-bicyclo[2.2.1]hept-2-ylphenyl)-1,5-dimethyl-3-(trifluoromethyl)-, exo-] |  |  | 0 | 0% | 22% | 0 | 1 | 2 | 0.19 µM |
| Cn1cc(C(=S)Nc2ccccc2[C@@H]2C[C@H]3CC[C@@H]2C3)c(C(F)F)n1 (relative stereo) [Example 102, 1H-pyrazole-4-carbothioamide, N-(2-bicyclo[2.2.1]hept-2-ylphenyl)-3-(difluoromethyl)-1-methyl-, exo-] |  |  | 1 | 88% | 83% | 3 | 3 | 3 | 16 µM |
| Cc1c(C(=S)Nc2ccccc2[C@@H]2C[C@H]3CC[C@@H]2C3)c(Cl)nn1C (relative stereo) [Example 103, 1H-pyrazole-4-carbothioamide, N-(2-bicyclo[2.2.1]hept-2-ylphenyl)-3-chloro-1,5-dimethyl-, exo-] |  |  | 0 | 5% | 18% |  |  | 0 | 0.52 µM |
| Cc1nn(C)c(Cl)c1C(=O)Nc1ccccc1[C@@H]1C[C@H]2CC[C@@H]1C2 (relative stereo) [Example 106, 1H-pyrazole-4-carboxamide, N-(2-bicyclo[2.2.1]hept-2-ylphenyl)-5-chloro-1,3-dimethyl-, exo-] |  |  | 0 | 9% | 3% | 2 | 3 | 3 | 0.094 µM |
| Cc1ccccc1NC(=O)c1c(C)nn(C)c1C [Compound H, N-(2-methylphenyl)-1,3,5-(trimethyl)-4-pyrazolecarboxamide, reference compound] |  |  | 0 | 5% | 9% |  |  | 0 | 475 µM |
| Cn1cc(C(=O)Nc2ccccc2C2CCCCC2)c(C(F)F)n1 [Example 1, 1H-pyrazole-4-carboxamide, N-(2-cyclohexylphenyl)-3-(difluoromethyl)-1-methyl-] | 3 | 3 | 3 | 92% | 94% | 2 | 0 | 0 | 0.0095 µM |
| Cn1cc(C(=O)Nc2ccccc2C2CCCCC2)c(C(F)(F)F)n1 [Example 2, 1H-pyrazole-4-carboxamide, N-(2-cyclohexylphenyl)-1-methyl-3-(trifluoromethyl)-] | 1 | 3 | 3 | 84% | 87% | 3 | 3 | 3 | 0.012 µM |
| Cc1nn(C)cc1C(=O)Nc1ccccc1C1CCCCC1 [Example 3, 1H-pyrazole-4-carboxamide, N-(2-cyclohexylphenyl)-1,3-dimethyl-] | 0 | 1 | 2 | 10% | 62% |  |  | 0 | 0.027 µM |
| Cn1cc(C(=O)Nc2ccccc2C2CCCCC2)c(C#N)n1 [Example 4, 1H-pyrazole-4-carboxamide, 3-cyano-N-(2-cyclohexylphenyl)-1-methyl-] | 1 | 2 | 2 | 29% | 58% |  |  | 0 | 0.065 µM |
| Cn1cc(C(=O)Nc2ccccc2C2CCCCC2)c(Br)n1 [Example 5, 1H-pyrazole-4-carboxamide, 3-bromo-N-(2-cyclohexylphenyl)-1-methyl-] | 1 | 3 | 3 | 50% | 40% |  |  | 0 | 0.0066 µM |
| Cc1nn(C)cc1C(=O)Nc1ccccc1C1CCCC1 [Example 6, 1H-pyrazole-4-carboxamide, N-(2-cyclopentylphenyl)-1,3-dimethyl-] |  |  | 1 | 0% | 20% | 0 | 0 | 1 | 0.25 µM |
